In patent publication US5051403A (priority 1989, dated 1991):

Legend:
[1] = test system: voltage-gated calcium channels, N1E115 mouse neuroblastoma cells; format: cell-based
[2] = test system: OCT receptor sites, NG-108 cells; format: binding, Rat glioma x mouse neuroblastoma

For `C[C@@H](O)[C@@H]1NC(=O)[C@H](Cc2ccc(O)cc2)NC(=O)[C@@H]2C[C@@H](O)CN2C(=O)[C@H](CC(N)=O)NC(=O)[C@@H]2CSSC[C@@H]3NC(=O)[C@H](CO)NC(=O)[C@H](CO)NC(=O)CNC(=O)[C@@H]4C[C@@H](O)CN4C(=O)[C@H](CO)NC(=O)[C@H](CCCCN)NC(=O)[C@@H](N)CSSC[C@H](NC(=O)[C@H](CSSC[C@@H](C(=O)N[C@@H](Cc4ccc(O)cc4)C(N)=O)NC(=O)[C@H](CCCNC(=N)N)NC(=O)[C@H](CCCCN)NC1=O)NC(=O)[C@H](CC(N)=O)NC(=O)[C@H](Cc1ccc(O)cc1)NC(=O)[C@H](CO)NC(=O)[C@H]([C@@H](C)O)NC(=O)[C@@H]1C[C@@H](O)CN1C(=O)[C@H](CO)NC3=O)C(=O)N[C@@H](CCCNC(=N)N)C(=O)N[C@@H](CO)C(=O)N2` [GVIA, HCysLysSer4HypGlySerSerCysSer4HypThrSerTyrAsnCysCysArgSerCysAsn4HypTyrLysArgCysTyr-NH2], the “ED50 (50% inhibition of calcium current)” value [1] was 12 nM.

`CSCC[C@@H]1NC(=O)[C@H](CC(C)C)NC(=O)[C@H](CCCNC(=N)N)NC(=O)[C@H](CO)NC(=O)[C@@H]2CSSC[C@@H]3NC(=O)[C@H](CO)NC(=O)CNC(=O)[C@H]([C@@H](C)O)NC(=O)[C@H](CSSC[C@H](N)C(=O)N[C@@H](CCCCN)C(=O)NCC(=O)N[C@@H](CCCCN)C(=O)NCC(=O)N[C@@H](C)C(=O)N[C@@H](CCCCN)C(=O)N2)NC(=O)[C@H](CSSC[C@@H](C(N)=O)NC(=O)[C@H](CCCCN)NC(=O)CNC(=O)[C@H](CO)NC(=O)[C@H](CCCNC(=N)N)NC3=O)NC(=O)[C@H](CC(=O)O)NC(=O)[C@H](Cc2ccc(O)cc2)NC1=O` [MVIIA] was tested, and the “concentration of specific binding sites” value [2] was 45.6.
